Experimental data published in article PMC9733911 (2022).

Tested on: d(CTG)16 (DNA, repeat) GGGCTGCTGCTGCTGCTGCTGCTGCTGCTGCTGCTGCTGCTGCTGCTGCTGCCC
Test: ITC
Settings: monomer alone

Kd [µM]	Structure (SMILES)
81.6 ± 0.9	N=C(NCCCCNc1nc(N)nc(NCc2ccc(C=O)cc2)n1)c1ccc(C(=N)NCCCCNc2nc(N)nc(NCc3ccc(C=O)cc3)n2)cc1
> 100	N=C(NCCCCNc1nc(N)nc(NCc2ccc(N)cc2)n1)c1ccc(C(=N)NCCCCNc2nc(N)nc(NCc3ccc(N)cc3)n2)cc1
